Laboratory results published in ChEMBL document CHEMBL2396528, “Synthesis of new conjugated coumarin-benzimidazole hybrids and their anticancer activity” (2013).
The source made the active and inactive calls. The calls are words filed in the database; no cut-off is given here.

system: MOLT-4; experiment: Cytotoxicity against human MOLT4 cells assessed as growth inhibition at 10 uM after 48 hrs by SRB assay relative to control; type: functional; settings: MOLT-4, 48 h, read-out: GI

Row | SMILES | inhibition of growth at 10 µM [%]
1 | O=c1[nH]cc(F)c(=O)[nH]1 [FLUOROURACIL] | 43.1

system: SF-539; experiment: Cytotoxicity against human SF539 cells assessed as growth inhibition at 10 uM after 48 hrs by SRB assay relative to control; type: functional; settings: not given

Row | SMILES | growth inhibition (GI)
2 | O=c1[nH]cc(F)c(=O)[nH]1 [FLUOROURACIL] | Active

system: OVCAR-4; experiment: Cytotoxicity against human OVCAR4 cells assessed as growth inhibition at 10 uM after 48 hrs by SRB assay relative to control; type: functional; settings: OVCAR-4, 48 h, read-out: GI

Row | SMILES | inhibition of growth at 10 µM [%]
3 | O=c1[nH]cc(F)c(=O)[nH]1 [FLUOROURACIL] | 59.4

system: HCC 2998; experiment: Cytotoxicity against human HCC2998 cells assessed as growth inhibition at 10 uM after 48 hrs by SRB assay relative to control; type: functional; settings: not given

Row | SMILES | growth inhibition (GI)
4 | O=c1[nH]cc(F)c(=O)[nH]1 [FLUOROURACIL] | Active

system: ACHN; experiment: Cytotoxicity against human ACHN cells assessed as growth inhibition at 10 uM after 48 hrs by SRB assay relative to control; type: functional; settings: read-out: GI

Row | SMILES | inhibition of growth at 10 µM [%]
5 | O=c1[nH]cc(F)c(=O)[nH]1 [FLUOROURACIL] | 39.3

system: not listed separately; experiment: Cytotoxicity against human NCI-ADR-RES cells assessed as growth inhibition at 10 uM after 48 hrs by SRB assay relative to control; type: functional; settings: read-out: GI

Row | SMILES | inhibition of growth at 10 µM [%]
6 | O=c1[nH]cc(F)c(=O)[nH]1 [FLUOROURACIL] | 47.6

system: CCRF-CEM; experiment: Cytotoxicity against human CCRF-CEM cells assessed as growth inhibition at 10 uM after 48 hrs by SRB assay relative to control; type: functional; settings: read-out: GI

Row | SMILES | inhibition of growth at 10 µM [%]
7 | O=c1[nH]cc(F)c(=O)[nH]1 [FLUOROURACIL] | 57.1

system: A498; experiment: Cytotoxicity against human A498 cells assessed as growth inhibition at 10 uM after 48 hrs by SRB assay relative to control; type: functional; settings: not given

Row | SMILES | growth inhibition (GI)
8 | O=c1[nH]cc(F)c(=O)[nH]1 [FLUOROURACIL] | Active

system: NCI-H23; experiment: Cytotoxicity against human NCI-H23 cells assessed as growth inhibition at 10 uM after 48 hrs by SRB assay relative to control; type: functional; settings: NCI-H23, 48 h, read-out: GI

Row | SMILES | inhibition of growth at 10 µM [%]
9 | O=c1[nH]cc(F)c(=O)[nH]1 [FLUOROURACIL] | 39

system: UACC-62; experiment: Cytotoxicity against human UACC62 cells assessed as growth inhibition at 10 uM after 48 hrs by SRB assay relative to control; type: functional; settings: UACC-62, 48 h, read-out: GI

Row | SMILES | inhibition of growth at 10 µM [%]
10 | O=c1[nH]cc(F)c(=O)[nH]1 [FLUOROURACIL] | 39.7

system: HCT-116; experiment: Cytotoxicity against human HCT116 cells assessed as growth inhibition at 10 uM after 48 hrs by SRB assay relative to control; type: functional; settings: HCT-116, 48 h, read-out: GI

Row | SMILES | inhibition of growth at 10 µM [%]
11 | O=c1[nH]cc(F)c(=O)[nH]1 [FLUOROURACIL] | 17.8

system: UO-31; experiment: Cytotoxicity against human UO31 cells assessed as growth inhibition at 10 uM after 48 hrs by SRB assay relative to control; type: functional; settings: UO-31, 48 h, read-out: GI

Row | SMILES | inhibition of growth at 10 µM [%]
12 | O=c1[nH]cc(F)c(=O)[nH]1 [FLUOROURACIL] | 41.3

system: SW-620; experiment: Cytotoxicity against human SW620 cells assessed as growth inhibition at 10 uM after 48 hrs by SRB assay relative to control; type: functional; settings: SW-620, 48 h, read-out: GI

Row | SMILES | inhibition of growth at 10 µM [%]
13 | O=c1[nH]cc(F)c(=O)[nH]1 [FLUOROURACIL] | < 20

system: HOP-62; experiment: Cytotoxicity against human HOP62 cells assessed as growth inhibition at 10 uM after 48 hrs by SRB assay relative to control; type: functional; settings: HOP-62, 48 h, read-out: GI

Row | SMILES | inhibition of growth at 10 µM [%]
14 | O=c1[nH]cc(F)c(=O)[nH]1 [FLUOROURACIL] | 47.8

system: PC-3; experiment: Cytotoxicity against human PC3 cells assessed as growth inhibition at 10 uM after 48 hrs by SRB assay relative to control; type: functional; settings: PC-3, 48 h, read-out: GI

Row | SMILES | inhibition of growth at 10 µM [%]
15 | O=c1[nH]cc(F)c(=O)[nH]1 [FLUOROURACIL] | 58.2

system: DU-145; experiment: Cytotoxicity against human DU145 cells assessed as growth inhibition at 10 uM after 48 hrs by SRB assay relative to control; type: functional; settings: DU-145, 48 h, read-out: GI

Row | SMILES | inhibition of growth at 10 µM [%]
16 | O=c1[nH]cc(F)c(=O)[nH]1 [FLUOROURACIL] | 35.5

system: Malme-3M; experiment: Cytotoxicity against human MALME-3M cells assessed as growth inhibition at 10 uM after 48 hrs by SRB assay relative to control; type: functional; settings: read-out: GI

Row | SMILES | inhibition of growth at 10 µM [%]
17 | O=c1[nH]cc(F)c(=O)[nH]1 [FLUOROURACIL] | 58.2

system: SF-268; experiment: Cytotoxicity against human SF268 cells assessed as growth inhibition at 10 uM after 48 hrs by SRB assay relative to control; type: functional; settings: SF-268, 48 h, read-out: GI

Row | SMILES | inhibition of growth at 10 µM [%]
18 | O=c1[nH]cc(F)c(=O)[nH]1 [FLUOROURACIL] | 59

system: SN12C; experiment: Cytotoxicity against human SN12C cells assessed as growth inhibition at 10 uM after 48 hrs by SRB assay relative to control; type: functional; settings: read-out: GI

Row | SMILES | inhibition of growth at 10 µM [%]
19 | O=c1[nH]cc(F)c(=O)[nH]1 [FLUOROURACIL] | 54

system: HCT-15; experiment: Cytotoxicity against human HCT15 cells assessed as growth inhibition at 10 uM after 48 hrs by SRB assay relative to control; type: functional; settings: HCT-15, 48 h, read-out: GI

Row | SMILES | inhibition of growth at 10 µM [%]
20 | O=c1[nH]cc(F)c(=O)[nH]1 [FLUOROURACIL] | 26.5

system: SK-OV-3; experiment: Cytotoxicity against human SKOV3 cells assessed as growth inhibition at 10 uM after 48 hrs by SRB assay relative to control; type: functional; settings: SK-OV-3, 48 h, read-out: GI

Row | SMILES | inhibition of growth at 10 µM [%]
21 | O=c1[nH]cc(F)c(=O)[nH]1 [FLUOROURACIL] | 77.5

system: HL-60(TB); experiment: Cytotoxicity against human HL-60(TB) cells assessed as growth inhibition at 10 uM after 48 hrs by SRB assay relative to control; type: functional; settings: HL-60, 48 h, read-out: GI

Row | SMILES | inhibition of growth at 10 µM [%]
22 | O=c1[nH]cc(F)c(=O)[nH]1 [FLUOROURACIL] | 47.9

system: HOP-92; experiment: Cytotoxicity against human HOP92 cells assessed as growth inhibition at 10 uM after 48 hrs by SRB assay relative to control; type: functional; settings: HOP-92, 48 h, read-out: GI

Row | SMILES | inhibition of growth at 10 µM [%]
23 | O=c1[nH]cc(F)c(=O)[nH]1 [FLUOROURACIL] | 50.6

system: IGROV-1; experiment: Cytotoxicity against human IGROV1 cells assessed as growth inhibition at 10 uM after 48 hrs by SRB assay relative to control; type: functional; settings: IGROV-1, 48 h, read-out: GI

Row | SMILES | inhibition of growth at 10 µM [%]
24 | O=c1[nH]cc(F)c(=O)[nH]1 [FLUOROURACIL] | 51.2

system: MCF7; experiment: Cytotoxicity against human MCF7 cells assessed as growth inhibition at 10 uM after 48 hrs by SRB assay relative to control; type: functional; settings: MCF7, 48 h, read-out: GI

Row | SMILES | inhibition of growth at 10 µM [%]
25 | O=c1[nH]cc(F)c(=O)[nH]1 [FLUOROURACIL] | 11.5

system: Hs-578T; experiment: Cytotoxicity against human Hs578T cells assessed as growth inhibition at 10 uM after 48 hrs by SRB assay relative to control; type: functional; settings: not given

Row | SMILES | growth inhibition (GI)
26 | O=c1[nH]cc(F)c(=O)[nH]1 [FLUOROURACIL] | Active

system: K562; experiment: Cytotoxicity against human K562 cells assessed as growth inhibition at 10 uM after 48 hrs by SRB assay relative to control; type: functional; settings: K562, 48 h, read-out: GI

Row | SMILES | inhibition of growth at 10 µM [%]
27 | O=c1[nH]cc(F)c(=O)[nH]1 [FLUOROURACIL] | 42.3

system: SNB-75; experiment: Cytotoxicity against human SNB75 cells assessed as growth inhibition at 10 uM after 48 hrs by SRB assay relative to control; type: functional; settings: SNB-75, 48 h, read-out: GI

Row | SMILES | inhibition of growth at 10 µM [%]
28 | O=c1[nH]cc(F)c(=O)[nH]1 [FLUOROURACIL] | 65.9

system: U-251; experiment: Cytotoxicity against human U251 cells assessed as growth inhibition at 10 uM after 48 hrs by SRB assay relative to control; type: functional; settings: U-251, 48 h, read-out: GI

Row | SMILES | inhibition of growth at 10 µM [%]
29 | O=c1[nH]cc(F)c(=O)[nH]1 [FLUOROURACIL] | 50.3

system: RPMI-8226; experiment: Cytotoxicity against human RPMI8226 cells assessed as growth inhibition at 10 uM after 48 hrs by SRB assay relative to control; type: functional; settings: RPMI-8226, 48 h, read-out: GI

Row | SMILES | inhibition of growth at 10 µM [%]
30 | O=c1[nH]cc(F)c(=O)[nH]1 [FLUOROURACIL] | 41.4

system: MDA-MB-231; experiment: Cytotoxicity against human MDA-MB-231 cells assessed as growth inhibition at 10 uM after 48 hrs by SRB assay relative to control; type: functional; settings: MDA-MB-231, 48 h, read-out: GI

Row | SMILES | inhibition of growth at 10 µM [%]
31 | O=c1[nH]cc(F)c(=O)[nH]1 [FLUOROURACIL] | 78.1

system: NCI-H226; experiment: Cytotoxicity against human NCI-H226 cells assessed as growth inhibition at 10 uM after 48 hrs by SRB assay relative to control; type: functional; settings: NCI-H226, 48 h, read-out: GI

Row | SMILES | inhibition of growth at 10 µM [%]
32 | O=c1[nH]cc(F)c(=O)[nH]1 [FLUOROURACIL] | 69.5
